The values below come from patent US20220308062A1, “METHODS FOR PREDICTING DRUG RESPONSIVENESS IN SAMPLES FROM CANCER SUBJECTS” (Board of Regents, The University of Texas System, priority 2019, published 2022).

Series [1] deals with A549 and H2009 cells. As to the kind of experiment: Western blot analysis. The format is cell-based, human. As to conditions: H2009, traditional western blot (FIG. 8C). On the procedure:
Western blot analysis. […] Cell lysates were harvested using RIPA buffer. The concentration of protein lysates was determined by Pierce™ BCA Protein Assay Kit (Thermo fisher). Forty micrograms of the total protein extracts were separated by NuPAGE™ 4-12% Bis-Tris Protein Gels (Thermo fisher) and transferred to PVDF membrane. The membrane was then blocked with 5% of Blotting-Grade Blocker (BioRad) in TBST and probed using primary antibodies including: 1) oncogenic pathways: JAK1, pSTAT3, STAT3, pAKT and pERK1/2 (Cell Signaling Technology; 3344S, 9131S, 9139T, 4060, 4377S); 2) cancer stemness markers: CD133 and ALDH1A1 (Cell Signaling Technology; 64326S and 54135S); and 3) EMT markers: Vimentin (Novus; NBP1-92687), N-cadherin, EpCAM (Abcam; ab71916) and CK8/18 (Novus; NBP2-44930); 4) loading control: GAPDH (Cell Signaling Technology; 2118S). Membrane was incubated in HRP-linked secondary antibodies following dilution with TBST (1:5000) at room temperature for one hour. Blots were developed using Western Lightning Plus-ECL Chemiluminescent Reagents (Perkin Elmer, Waltham, Mass.) and Syngene G:BOX Imaging System.

Series [2] has as its system A549 and H2009 cells. As to the kind of experiment: Capillary Western immunoassay (WES). The format is cell-based, human. The method, then:
Capillary Western immunoassay. Protein lysates of A549 lung cancer cells were prepared in radioimmunoprecipitation assay buffer (Thermo Fisher Scientific). Proteins with 12-230 kDa were analyzed in the Western immunoassay (WES) Separation Module of the quantitative capillary Western immunoassay system (ProteinSimple, San Jose, Calif.). The following antibodies were used: (i) β-catenin, AXL, AKT, C-RAF, p38 MAPK, MEK1/2, P42/44 MAPK, SMAD2/3, SMAD4, and GAPDH from Cell Signaling Technology (Danvers, Mass.); (ii) p-AXL from R&D Systems (Minneapolis, Minn.); (iii) vimentin, YAP1, TAZ, CK8/18 and CK19 from Novus Biologicals (Centennial, Colo.); (iv) N-cadherin from Abcam (Cambridge); (v) E-cadherin from BD Biosciences (San Jose, Calif.). Protein expression levels were normalized with that of GAPDH.
Capillary Western immunoassay (WES). Protein lysates of A549 and H2009 cells were prepared in radio-immunoprecipitation assay buffer (Thermo Fisher Scientific). Proteins were then analyzed in 12-230 and 66-440 kDa WES separation module of quantitative capillary Western immunoassay system (Protein Simple). The following antibodies were used: 1) AXL, AKT, JNK, p38 MAPK, MEK1/2, P42/44 MAPK, and GAPDH (Cell Signaling Technology); and 2) p-AXL and YAP1 (R&D Systems). Protein expression levels were normalized with GAPDH as loading controls.
Materials and methods. Capillary Western immunoassay (WES). Protein lysates of A549 and H2009 cells were prepared in radio-immunoprecipitation assay buffer (Thermo Fisher Scientific). Proteins were then analyzed in 12-230 and 66-440 kDa WES separation module of quantitative capillary Western immunoassay system (Protein Simple). Antibodies against AXL and GAPDH were (Cell Signaling Technology). Protein expression levels were normalized with GAPDH as loading controls.

The test system of series [3] is H2009 cells. The series is described as follows: Proliferation assay (IncuCyte ZOOM), H2009. The format is cell-based. As to conditions: Homo sapiens, NCI-H2009; read-out: IC50 from proliferation curves. The method, then: (§1) Analysis was performed using IncuCyte ZOOM (Essen BioScience) with images acquired every 3 hr for up to 72 hr. Four images (proliferation) and one image (wound healing) were captured per well for each time point. Data were normalized to controls, and values for 50% effective concentration were calculated using Prism V7.0 (GraphPad software, San Diego, Calif.).
(§2) In vitro phenotypic assay. […] Proliferation and migration curves were generated using IncuCyte ZOOM (Essen BioScience) with images acquired every 3 hr over a 72 hr timeframe. Images were captured per well for each time point. Data were normalized to controls, and values for 50% inhibitory concentration were calculated using Prism V8.0 (GraphPad software).

For series [4], the system named is patients with advanced tumors. The note with it: early results, ref [21]; cited from earlier work.
Series [5] concerns A549, H2009 and H226 cell lines. The series is described as follows: Wound healing (migration) assay. The format is cell-based, human. On the procedure:
as §1, §2

The test system of series [6] is patient-derived organoids (PDOs). As to the kind of experiment: Patient-derived organoid CellTiter-Glo cell viability. The format is cell-based, human. The method, then:
Patient-derived organoids (PDOs). Tumor tissues were minced on ice into 1 mm^3 small pieces. Tumor pieces (˜20 μl in volume) were resuspended in 200 μl Matrigel and seeded into 24 well plates for 15 min until gel solidify, followed by culture in advanced DMEM/F12 medium supplemented with B27 and N2 (Thermo Fisher Scientific), 0.01% BSA (Roche), 100 units/m penicillin-streptomycin (Thermo Fisher Scientific), and others (Table 4) for 4-8 weeks to grow organoids. […] The CellTiter-Glo Luminescent Cell Viability assay was used to determine drug responsiveness.
In general terms: Cellular ATP, detected with luciferase, serves as a proxy for viable cell number.

With `CN1CCN(Cc2ccc(Nc3ncc(Cl)c(Nc4ccccc4S(=O)(=O)N(C)C)n3)cc2)CC1` [TP-0903], the “SLUG transcription factor levels” value in series [1] is “significantly decreased”. Also, the “AXL level (WES)” value in series [2] (A549, 40 nmol/L) was “down-regulated”. In series [2] (A549 and H2009, 40 nM), the “cytokeratin 19 (CK19) level” value is listed as “noticeable increase” and the vimentin level entry is given as “minor decrease”. In addition, in series [2] (A549 and H2009, 40 nmol/L), the “protein levels of AXL, phosphorylated AXL, SMAD2/3, SMAD4, YAP1, and TAZ” value is recorded as “reduced”. For the same molecule, in series [3], the IC50 was found to be 35.5 nM. For the same molecule, the tolerability in patients entry in series [4] is recorded as “well tolerated”. Moreover, the “cytotoxicity based on cell morphology” value in series [5] (A549 and H2009, increasing concentrations) was “did not result in significant cytotoxicity”. Also, the migration potential entry in series [5] (increasing concentrations, 0-200 nM) was “significantly impeded”. For the same molecule, the PDO sensitivity result in series [6] (PDOs from tumors with high AXL and JAK1) was “sensitive”. For the same molecule, the “PDO response (cell viability)” value in series [6] (PDOs of Pt 008 and 010 (Category I/II), TP-0903 20 nmol/L or ruxolitinib 15 μmol/L, 72 hr) is on record as “did not respond robustly”.
